Converted amounts (≈) assume the structure as drawn.
Assays:
Format in all cases: cell-based
[1] = test system: Veillonella spp.; experiment: Agar dilution MIC, 30 clinical isolates; conditions: 30 Veillonella spp. clinical isolates
[2] = test system: Klebsiella spp.; experiment: Broth microdilution MIC, 50 clinical isolates (20 K. oxytoca, 30 K. pneumoniae)
Procedure: Minimal inhibitory concentration (MIC) values were determined by broth microdilution or agar dilution in accordance with guidelines from the Clinical and Laboratory Standards Institute (CLSI; (1) “Methods for Dilution Antimicrobial Susceptibility Tests for Bacteria That Grow Aerobically; Approved Standard; 11th ed.” CLSI standard M07-A11, 2018; (2) “Performance Standards for Antimicrobial Susceptibility Testing; Twenty-Eighth Informational Supplement,” CLSI document M100-S28, 2018; and (3) “Methods for Antimicrobial Susceptibility Testing of Anaerobic Bacteria; Approved Standard—Eighth Edition,” CLSI document M11-A8, 2012).
Tested aerobically by broth microdilution: • Escherichia coli, n=50 • Klebsiella spp., n=50 • Pseudomonas aeruginosa, n=50 • Streptococcus spp., n=50 • Staphylococcus aureus, n=50 • Enterococcus faecalis, n=50 • Enterobacter aerogenes, n=50 • Proteus mirabilis, n=50
Broth microdilution testing of aerobic bacteria was conducted in cation-adjusted Mueller Hinton broth (MHBII). For testing streptococci, lysed horse blood (LHB) was added to MHBII broth at a final concentration of 3%. Where LHB was used, it was added after filtering.
Broth microdilution susceptibility testing in 96-well microplates was conducted in accordance with CLSI methods (1) and (2). Automated liquid handlers were used to conduct serial dilutions and liquid transfers, including the Multidrop 384 (Labsystems, Helsinki, Finland), Biomek 2000, and the Biomek FX (Beckman Coulter, Fullerton, Calif.). All wells in columns 2 through 12 of a standard 96-well microdilution plate (Costar 3795) were filled with 150 μL of the appropriate diluent. Then, 300 μL of the test agents were added to the wells of column 1 of the plates at 100× the highest final concentration to be tested. Serial two-fold dilutions were made across the rows through column 11 using the Biomek 2000. The wells of column 12 contained no drug and served as the growth control wells. This plate served as the “mother plate” from which MIC assay plates or “daughter plates” were made.
The daughter plates were loaded with 190 μL per well of the appropriate medium using the Multidrop 384. The daughter plates were created using the Biomek FX which transferred 2 μL of drug solution from each well of a mother plate to each corresponding well of the daughter plate in a single step. A standardized inoculum of each test organism was prepared per CLSI methods (1) to equal a 0.5 McFarland standard, followed by a dilution of 1:20 for aerobes and 1:10 for anaerobes. The plates were then inoculated with 10 μL of the diluted inoculum using the Biomek 2000 from low to high drug concentration, resulting in a final concentration of approximately 5×10^5 CFU/mL per well. An un-inoculated plate was incubated in parallel for each medium for the purpose of assessing solubility of the drug in the test media.
Inoculated plates were stacked 3 or 4 high, covered with a sterile lid on the top plate, placed into boxes with CO2 planchets (streptococci) or plastic bags (all other isolates). Plates were incubated at 35° C. for 16-24 hr in ambient air for aerobes or for 42-48 hr in the anaerobic environment of the Bactron II anaerobe chamber (Sheldon Manufacturing Co.; Cornelius, Oreg.). Following incubation, the microplates were removed from the incubator and viewed from the bottom using a plate viewer. The MIC values were read and recorded as the lowest concentration of drug that inhibited visible growth of the organism as per CLSI methods (1) and (2).

[3] = test system: Pseudomonas aeruginosa; experiment: Broth microdilution MIC, 50 clinical isolates
In short: (§1)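 CLSI broth microdilution in cation-adjusted Mueller Hinton broth, with 3% lysed horse blood added for streptococci. Two-fold dilutions, inoculum ~5×10^5 CFU/mL, 35° C for 16-24 hr in ambient air (streptococci with CO2 planchets). MIC = lowest concentration inhibiting visible growth.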

[4] = test system: Enterobacter aerogenes; experiment: Broth microdilution MIC, 50 clinical isolates
In short: as §1

[5] = test system: Proteus mirabilis; experiment: Broth microdilution MIC, 50 clinical isolates
In short: as §1

## Cc1ncc([N+](=O)[O-])n1CCO [MTZ]
[1]
  % R: 17%
  % S: 83%
  MIC50: 4 µg/mL (≈ 23.4 µM)
  MIC90: >32 µg/mL
[1]; modal MIC
  Mode: 4 µg/mL

## piperacillin/tazobactam [piperacillin-tazobactam]
[2]
  % I: 2%
  % R: 24%
  % S: 74%
  MIC50: 4 µg/mL
  MIC90: >128 µg/mL
  Mode: 2 µg/mL
[2]; 0.5 μg/mL
  Cumulative percentage of isolates at MIC: 4.0%
  Number of test isolates at MIC: 2.
[2]; 1 μg/mL
  Cumulative percentage of isolates at MIC: 14.0%
  Number of test isolates at MIC: 5
[2]; 2 μg/mL
  Cumulative percentage of isolates at MIC: 48.0%
  Number of test isolates at MIC: 17
[2]; 4 μg/mL
  Cumulative percentage of isolates at MIC: 58.0%
  Number of test isolates at MIC: 5
[2]; 8 μg/mL
  Cumulative percentage of isolates at MIC: 68.0%
  Number of test isolates at MIC: 5
[2]; 16 μg/mL
  Cumulative percentage of isolates at MIC: 74.0%
  Number of test isolates at MIC: 3
[2]; 64 μg/mL
  Cumulative percentage of isolates at MIC: 76.0%
  Number of test isolates at MIC: 1
[2]; 128 μg/mL
  Cumulative percentage of isolates at MIC: 78.0%
  Number of test isolates at MIC: 1
[2]; >128 μg/mL
  Cumulative percentage of isolates at MIC: 100.0%
  Number of test isolates at MIC: 11
[3]
  % I: 14%
  % R: 22%
  % S: 64%
  MIC50: 8 µg/mL
  MIC90: >128 µg/mL
  Mode: 4 µg/mL
[3]; 2 μg/mL
  Cumulative percentage of isolates inhibited at MIC: 6.0%
  Number of test isolates at MIC: 3
[3]; 4 μg/mL
  Cumulative percentage of isolates inhibited at MIC: 40.0%
  Number of test isolates at MIC: 17
[3]; 8 μg/mL
  Cumulative percentage of isolates inhibited at MIC: 60.0%
  Number of test isolates at MIC: 10
[3]; 16 μg/mL
  Cumulative percentage of isolates inhibited at MIC: 64.0%
  Number of test isolates at MIC: 2
[3]; 32 μg/mL
  Cumulative percentage of isolates inhibited at MIC: 74.0%
  Number of test isolates at MIC: 5
[3]; 64 μg/mL
  Cumulative percentage of isolates inhibited at MIC: 78.0%
  Number of test isolates at MIC: 2
[3]; 128 μg/mL
  Cumulative percentage of isolates inhibited at MIC: 84.0%
  Number of test isolates at MIC: 3
[3]; >128 μg/mL
  Cumulative percentage of isolates inhibited at MIC: 100.0%
  Number of test isolates at MIC: 8
[4]
  % I: 16%
  % R: 8%
  % S: 76%
  MIC50: 4 µg/mL
  MIC90: 64 µg/mL
  Mode: 2 µg/mL
[4]; 1 μg/mL
  Cumulative percentage of isolates inhibited at MIC: 4.0%
  Number of test isolates at MIC: 2
[4]; 2 μg/mL
  Cumulative percentage of isolates inhibited at MIC: 38.0%
  Number of test isolates at MIC: 17
[4]; 4 μg/mL
  Cumulative percentage of isolates inhibited at MIC: 62.0%
  Number of test isolates at MIC: 12
[4]; 8 μg/mL
  Cumulative percentage of isolates inhibited at MIC: 74.0%
  Number of test isolates at MIC: 6
[4]; 16 μg/mL
  Cumulative percentage of isolates inhibited at MIC: 76.0%
  Number of test isolates at MIC: 1
[4]; 32 μg/mL
  Cumulative percentage of isolates inhibited at MIC: 88.0%
  Number of test isolates at MIC: 6
[4]; 64 μg/mL
  Cumulative percentage of isolates inhibited at MIC: 92.0%
  Number of test isolates at MIC: 2
[4]; 128 μg/mL
  Cumulative percentage of isolates inhibited at MIC: 98.0%
  Number of test isolates at MIC: 3
[4]; >128 μg/mL
  Cumulative percentage of isolates inhibited at MIC: 100.0%
  Number of test isolates at MIC: 1
[5]
  % S: 100%
  MIC50: 0.25 µg/mL
  MIC90: 1 µg/mL
  MIC range: ≤0.12 to 2 µg/mL
  Mode: 0.25 µg/mL
[5]; 0.5 μg/mL
  Cumulative percentage of isolates inhibited at MIC: 82.0%
  Number of test isolates at MIC: 16
[5]; 1 μg/mL
  Cumulative percentage of isolates inhibited at MIC: 96.0%
  Number of test isolates at MIC: 7
[5]; 2 μg/mL
  Cumulative percentage of isolates inhibited at MIC: 100.0%
  Number of test isolates at MIC: 2
[5]; […]
  Cumulative percentage of isolates inhibited at MIC: 50.0%
  Number of test isolates at MIC: 22
[5]; ≤[…]
  Cumulative percentage of isolates inhibited at MIC: 6.0%
  Number of test isolates at MIC: 3

Source: patent publication US20210386367A1, “DEVICES AND SYSTEMS FOR GASTROINTESTINAL MICROBIOME DETECTION AND MANIPULATION” (Progenity, Inc., priority 2018, published 2021)
